The test system of experiment [1] is type IV allergy (afferent phase), mouse contact-type dermatitis in auricles. The experiment in a line: Type IV allergy (afferent phase), DNFB contact-type dermatitis in auricles, oral administration. The class given is in vivo, Male C57BL/6J mice. The settings on record: 30 mg/kg, 1 hr before sensitization, vs distilled water, n = 7-9. On the procedure: The present compound was assessed for its effect on type IV allergy (afferent phase) through oral administrations, using a DNFB contact-type dermatitis model.
(§1) Male C57BL/6J mice purchased from Clea Japan, Inc. were used.
The test compounds were orally administered to the mice. One hr later, sensitization was performed by applying 30 μl of 0.5% DNFB acetone solution. Five days after the sensitization procedure, 10 μl of 0.1% DNFB dissolved in acetone was applied to their right auricles to induce contact-type dermatitis. Then, 24 hrs later, the thickness of the auricles was measured and the rate of edema calculated.

In experiment [2] the test system is rat type I allergy (PCA reaction). The experiment in a line: Rat type I allergy: passive anaphylaxis (PCA) reaction, oral administration. Format: in vivo, Male Wistar rats. Particulars: 100 mg/5 ml/kg oral, 60 min before PCA provocation; for Optical density: 625 nm, mean ± standard deviation, n = 5-6; for Inhibition rate (%): vs CMC-Na. How it is done:
The present compound was assessed for its effect on type I allergy through oral administration.
The compound of Example 1 100 mg/5 ml/kg
Male Wistar rats purchased from SLC Japan were used in the test.
The rats were intracutaneously injected in the back with 100 μl of antiserum (16-fold dilution) under pentobarbital anesthesia. Forty-eight hrs later, the animals were injected with 5 ml/kg of a mixture of ovalbumin (25 mg/kg) and Evans blue (12.5 mg/kg) to provoke passive anaphylaxis (PCA) reaction.
The rats were sacrificed 30 min after the provocation of PCA reaction and dye-infiltrated region of their back skin was cut out, the dye extracted with 5 ml of formamide and its optical density measured (625 nm).
Each of the test compounds was orally administered 60 min before the provocation of PCA reaction.

The subject of experiment [3] is type IV allergy (efferent phase), mouse contact-type dermatitis in auricles. The experiment in a line: Type IV allergy (efferent phase), DNFB contact-type dermatitis in auricles. The class given is in vivo, Male C57BL/6J mice. Particulars: n = 9-11, 1 hr before induction. How it is done: The present compound was assessed for its effect on type IV allergy (efferent phase) through oral and topical administrations, using a DNFB contact-type dermatitis model.
as §1
The mice which had their abdominal hair removed on the previous day were sensitized by applying to them on a 1-cm^2 area of their abdominal surface 25 μl of 0.5% dinitrofluorobenzene (DNFB) dissolved in acetone, under anesthesia with ketamine hydrochloride: xylazine hydrochloride (9:1). Five days after the sensitization procedure, 10 μl of 0.1% DNFB dissolved in acetone was applied to the outer side of their right auricles to induce infammation. Twenty-four hrs after the induction of inflammation, the thickness of the auricles was measured with a dial thickness gauge (manufactured by Ozaki Seisakusho) and the rate of edema calculated by comparing it with pre-induction thickness.
The test compounds were administered either orally or by topically applying 15 μl of its solution onto the outer side of the auricles, 1 hr before the induction.

Experiment [4] concerns allergy. The settings on record: background statement, cited from earlier work.
The mark [5] stands for this setting: topical, concentration 0.2%, vs methanol.
Where [6] appears, read: topical, concentration 0.5%, vs methanol.
Where [7] appears, read: Table 4, topically applied (as titled), concentration 0.5%, vs CMC-Na.

The source of these data is patent US6310067A, “Urocanic acid derivatives” (Senju Pharmaceutical Co., Ltd., priority 1998, dated 2001).

Where two headings read alike, the source gives them in different places.

With `COC(=O)C=Cc1cn(CCN2CCN(C(c3ccccc3)c3ccccn3)CC2)cn1` (stereo not shown) [Example 3, 1-[Phenyl(2-pyridyl)methylpiperazinylethyl]urocanic Acid Methyl Ester], the “Inhibition rate (%)” value worked out at 49.5% in experiment [1], 29.2% in experiment [2], 47.5% in experiment [3] (setting [5]) and 79.2% in experiment [3] (setting [6]). The molecule also returned an Optical density in experiment [2] of 0.409 ± 0.033.

With `COC(=O)C=Cc1cn(-c2ccc(N)cc2)cn1` [Example 5, 1-(4-Aminophenyl)urocanic Acid Methyl Ester], in experiment [3] (setting [5]), the “Inhibition rate (%)” value came out at 99.9%.

`COC(=O)C=Cc1cn(CC=Cc2ccccc2)cn1` [Example 17, 1-(3-Phenyl-2-propenyl)urocanic Acid Methyl Ester]: the “Inhibition rate (%)” value in experiment [3] (setting [7]) was found to be 70.5%.

Regarding `COC(=O)C=Cc1cn(-c2nccs2)cn1` [Example 9, 1-(2,5-Thiazolyl)urocanic Acid Methyl Ester], the “Inhibition rate (%)” value in experiment [3] (setting [7]) came out at 89.9%.

For the molecule `COC(=O)C=Cc1cn(CCN2CCN(C(c3ccccc3)c3ccccc3)CC2)cn1` [Example 1, 1-(Diphenylmethylpiperazinylethyl)urocanic Acid Methyl Ester], the “Inhibition rate (%)” value in experiment [1] is 47.8%; in experiment [2] it was 28.7%; in experiment [3] (setting [5]), 73.5%; in experiment [3] (setting [6]), 83.9%. In experiment [2], the Optical density worked out at 0.413 ± 0.051.

For the molecule `O=C(O)C=Cc1cn(CCN2CCN(C(c3ccccc3)c3ccccc3)CC2)cn1` [Example 2, 1-(Diphenylmethylpiperazinylethyl)urocanic Acid], in experiment [1], the “Inhibition rate (%)” value is 56.2%.

As to `O=C(O)/C=C/c1c[nH]cn1` [urocanic acid, Urocanic acid], the “effect on delayed allergy” value is given as “suppressive effect on delayed allergy” in experiment [4] (listed as Urocanic acid) and “by no means satisfactory” in experiment [4].
